Source: ChEMBL document CHEMBL6109071, “Chemical modification for improving drug-like molecular properties of climacostol, a natural resorcinolic lipid” (Bioorg Med Chem, 2025)
In brackets after ≈: the same amount, converted by molar mass. Activity calls are given as the source filed them. The rule behind the calls is not given here.

Columns and labels:
Blepharisma japonicum [1] = experiment: Cytotoxicity against Blepharisma japonicum R1072 assessed as reduction in viability measured after 1 hr; assay type: functional
Euplotes aediculatus [2] = experiment: Cytotoxicity against Euplotes aediculatus clone EA-III assessed as reduction in viability measured after 1 hr; assay type: functional
[3] = tested on: Paramecium multimicronucleatum; experiment: Cytotoxicity against Paramecium multimicronucleatum clone TL-2 assessed as reduction in viability measured after 1 hr; assay type: functional
Paramecium tetraurelia [4] = experiment: Cytotoxicity against Paramecium tetraurelia stock 51 assessed as reduction in viability measured after 1 hr; assay type: functional
Spirostomum ambiguum = experiment: Cytotoxicity against Spirostomum ambiguum stock Pol-5 assessed as reduction in viability measured after 1 hr; assay type: functional
Spirostomum teres [5] = experiment: Cytotoxicity against Spirostomum teres stock Pol-1 assessed as reduction in viability measured after 1 hr; assay type: functional
Stentor polymorphus [6] = experiment: Cytotoxicity against Stentor polymorphus stock GF-1 assessed as reduction in viability measured after 1 hr; assay type: functional
Blepharisma japonicum [7] = experiment: Cytotoxicity against Blepharisma japonicum R1072 assessed as reduction in viability measured after 24 hrs; assay type: functional
Euplotes aediculatus [8] = experiment: Cytotoxicity against Euplotes aediculatus clone EA-III assessed as reduction in viability measured after 24 hrs; assay type: functional
[9] = tested on: Paramecium multimicronucleatum; experiment: Cytotoxicity against Paramecium multimicronucleatum clone TL-2 assessed as reduction in viability measured after 24 hrs; assay type: functional
Paramecium tetraurelia [10] = experiment: Cytotoxicity against Paramecium tetraurelia stock 51 assessed as reduction in viability measured after 24 hrs; assay type: functional
Spirostomum teres [11] = experiment: Cytotoxicity against Spirostomum teres stock Pol-1 assessed as reduction in viability measured after 24 hrs; assay type: functional
Stentor polymorphus [12] = experiment: Cytotoxicity against Stentor polymorphus stock GF-1 assessed as reduction in viability measured after 24 hrs; assay type: functional
SH-SY5Y [13] = experiment: Cytotoxicity against human SH-SY5Y cells assessed as reduction in cell viability measured after 24 hrs by MTT assay; assay type: functional, cell-based
SH-SY5Y [14] = experiment: Cytotoxicity against human SH-SY5Y cells assessed as cell death at 30 ug/ml measured after 24 hrs by MTT assay relative to control; assay type: functional
SH-SY5Y [15] = experiment: Cytotoxicity against human SH-SY5Y cells assessed as reduction in cell viability at 30 ug/ml measured after 3 hrs by MTT assay relative to control; assay type: functional
[16] = Toxicity in Drosophila melanogaster Oregon-R assessed as change in larvae development by measuring reduction in developed third instar larvae at 100 ug/ml administered through feeding measured twice daily on day 8 to 9 post-treatment relative to control; design: scale not given: the % may be the effect or the level left; settings: po, at 100 µg/mL, time 8-9 day
[17] = Toxicity in Drosophila melanogaster Oregon-R assessed as DNA fragmentation in digestive tract of third instar larvae at 100 ug/ml administered through feeding measured after day 8 to 9 by TUNEL/DAPI staining based confocal microscopy; settings: po, time 8-9 day, dose 100 µg/ml
[18] = Toxicity in Drosophila melanogaster Oregon-R assessed as increase in cleaved caspase-3 in the cytoplasm of midgut cells of third instar larvae at 100 ug/ml administered through feeding measured after day 8 to 9 by DAPI immunostaining based confocal microscopy; assay type: tissue-based; settings: po, time 8-9 day, dose 100 µg/ml
SH-SY5Y [19] = experiment: Cytotoxicity against human SH-SY5Y cells assessed as cell death at 10 ug/ml measured after 24 hrs by MTT assay relative to control; assay type: functional
SH-SY5Y [20] = experiment: Induction of apoptosis in human SH-SY5Y cells assessed as increase in caspase-3 expression at 10 to 30 ug/ml measured after 9 hrs by immunostaining based confocal microscopy; assay type: functional, cell-based; settings: dose 10-30 µg/ml
SH-SY5Y [21] = experiment: Induction of apoptosis in human SH-SY5Y cells assessed as cytoplasmic shrinkage at 10 to 30 ug/ml measured after 9 hrs by DAPI/phalloidin staining based confocal microscopy; assay type: functional, cell-based; settings: dose 10-30 µg/ml
SH-SY5Y [22] = experiment: Induction of apoptosis in human SH-SY5Y cells assessed as chromatin condensation at 10 to 30 ug/ml measured after 9 hrs by DAPI/phalloidin staining based confocal microscopy; assay type: functional, cell-based; settings: dose 10-30 µg/ml
SH-SY5Y [23] = experiment: Induction of apoptosis in human SH-SY5Y cells assessed as altered roundness of nuclear area at 10 to 30 ug/ml measured after 9 hrs by DAPI/phalloidin staining based confocal microscopy; assay type: functional, cell-based; settings: dose 10-30 µg/ml
SH-SY5Y [24] = experiment: Induction of apoptosis in human SH-SY5Y cells assessed as altered morphology of nuclear area at 10 to 30 ug/ml measured after 9 hrs by DAPI/phalloidin staining based confocal microscopy; assay type: functional, cell-based; settings: dose 10-30 µg/ml
Euplotes aediculatus [25] = experiment: Potency index, ratio of climacostol LC50 to test compound LC50 for cytotoxicity against Euplotes aediculatus clone EA-III; assay type: functional
[26] = tested on: Paramecium multimicronucleatum; experiment: Potency index, ratio of climacostol LC50 to test compound LC50 for cytotoxicity against Paramecium multimicronucleatum clone TL-2; assay type: functional
Paramecium tetraurelia [27] = experiment: Potency index, ratio of climacostol LC50 to test compound LC50 for cytotoxicity against Paramecium tetraurelia stock 51; assay type: functional

Molecule `CCCCCC/C=C\Cc1cc(O)cc(O)c1` has an LC50 (Blepharisma japonicum [1]) of 3.17 µg/mL (≈ 13.5 µM), an LC50 (Euplotes aediculatus [2]) of 1.7 µg/mL (≈ 7.25 µM) and an LC50 [3] of 1.64 µg/mL (≈ 7 µM). For the same molecule, the LC50 (Paramecium tetraurelia [4]) was 1.43 µg/mL (≈ 6.1 µM), the LC50 (Spirostomum ambiguum) was 2.03 µg/mL (≈ 8.66 µM) and the LC50 (Spirostomum teres [5]) was 2.04 µg/mL (≈ 8.71 µM). The LC50 (Stentor polymorphus [6]) was 1.21 µg/mL (≈ 5.16 µM), the LC50 (Blepharisma japonicum [7]) was 2.04 µg/mL (≈ 8.71 µM) and the LC50 (Euplotes aediculatus [8]) was 0.83 µg/mL (≈ 3.54 µM). It also gave an LC50 [9] of 0.88 µg/mL (≈ 3.76 µM), an LC50 (Paramecium tetraurelia [10]) of 0.9 µg/mL (≈ 3.84 µM) and an LC50 (Spirostomum teres [11]) of 1.68 µg/mL (≈ 7.17 µM). For the same molecule, the LC50 (Stentor polymorphus [12]) was 0.94 µg/mL (≈ 4.01 µM), the Activity (SH-SY5Y [13]) was “Dose-dependent-effect” and the IC50 (SH-SY5Y [13]) was 12.9 µg/mL (≈ 54.9 µM). For the same molecule, the Emax at 30 µg/mL (SH-SY5Y [14]) was 90% and the Activity (SH-SY5Y [15]; dose 30.0 µg/ml) was “inactive”.
`CCCCCC/C=C\Cc1cc(O)cc(O)c1O` gave an LC50 (Blepharisma japonicum [1]) of 3.97 µg/mL (≈ 15.9 µM), an LC50 (Euplotes aediculatus [2]) of 0.7 µg/mL (≈ 2.8 µM) and an LC50 [3] of 0.58 µg/mL (≈ 2.32 µM). It also gave an LC50 (Paramecium tetraurelia [4]) of 0.29 µg/mL (≈ 1.16 µM), an LC50 (Spirostomum ambiguum) of 3.73 µg/mL (≈ 14.9 µM) and an LC50 (Spirostomum teres [5]) of 2.24 µg/mL (≈ 8.95 µM). For the same molecule, the LC50 (Stentor polymorphus [6]) was 1.24 µg/mL (≈ 4.95 µM), the LC50 (Blepharisma japonicum [7]) was 2.07 µg/mL (≈ 8.27 µM) and the LC50 (Euplotes aediculatus [8]) was 0.23 µg/mL (≈ 0.919 µM). The LC50 [9] was 0.13 µg/mL (≈ 0.519 µM), the LC50 (Paramecium tetraurelia [10]) was 0.21 µg/mL (≈ 0.839 µM) and the LC50 (Spirostomum teres [11]) was 1.86 µg/mL (≈ 7.43 µM). For the same molecule, the LC50 (Stentor polymorphus [12]) was 0.54 µg/mL (≈ 2.16 µM), the Activity [16] was 23% and the Activity [17] was “Toxic”. The Activity [18] was “Toxic”, the Activity (SH-SY5Y [13]) was “Dose-dependent-effect” and the IC50 (SH-SY5Y [13]) was 4.72 µg/mL (≈ 18.9 µM). For the same molecule, the Emax at 10 µg/mL (SH-SY5Y [19]) was 90%, the Activity (SH-SY5Y [15]; dose 30 µg/ml) was 90% and the Activity (SH-SY5Y [20]) was “Active”. For the same molecule, the Activity (SH-SY5Y [21]) was “Active”, the Activity (SH-SY5Y [22]) was “Active” and the Activity (SH-SY5Y [23]) was “Active”. The Activity (SH-SY5Y [24]) was “Active”, the RatioLC50 (Euplotes aediculatus [25]) was 2.5 and the RatioLC50 [26] was 2.5. The RatioLC50 (Paramecium tetraurelia [27]) was 2.5.
